This note sets out measurements from PubChem BioAssay AID1259407 (Chemical Carcinogenesis Research Information System (CCRIS), 2018).

Calls of active or inactive are those of the source. No rule for the calls is given here.

This series deals with CCRIS mutagenicity, Ames/micronucleus/aberration tests. Kind of series: CCRIS mutagenicity studies.
Where [1] appears, read: Test System: AMES SALMONELLA TYPHIMURIUM, Strain/Indicator: TA98, Metabolic Activation: NONE, Method: PREINCUBATION
Setting [2] is: Test System: AMES SALMONELLA TYPHIMURIUM, Strain/Indicator: TA100, Metabolic Activation: NONE, Method: PREINCUBATION

As to `Cc1cccc(O)c1N`, the mutagenic call runs as follows: (Test System: AMES SALMONELLA TYPHIMURIUM, Strain/Indicator: TA98, Metabolic Activation: HAMSTER LIVER S-9, AROCLOR 1254, Method: STANDARD PLATE) “inactive; negative”; (Test System: AMES SALMONELLA TYPHIMURIUM, Strain/Indicator: TA98, Metabolic Activation: NONE, Method: STANDARD PLATE) “inactive; negative”; (Test System: AMES SALMONELLA TYPHIMURIUM, Strain/Indicator: TA98, Metabolic Activation: RAT LIVER S-9, AROCLOR 1254, Method: STANDARD PLATE) “inactive; negative”; (Test System: AMES SALMONELLA TYPHIMURIUM, Strain/Indicator: TA100, Metabolic Activation: HAMSTER LIVER S-9, AROCLOR 1254, Method: STANDARD PLATE) “inactive; negative”; (Test System: AMES SALMONELLA TYPHIMURIUM, Strain/Indicator: TA100, Metabolic Activation: NONE, Method: STANDARD PLATE) “inactive; negative”; (Test System: AMES SALMONELLA TYPHIMURIUM, Strain/Indicator: TA100, Metabolic Activation: RAT LIVER S-9, AROCLOR 1254, Method: STANDARD PLATE) “inactive; negative”. Moreover, the mutagenic call is “inactive; negative” (Test System: AMES SALMONELLA TYPHIMURIUM, Strain/Indicator: TA102, Metabolic Activation: HAMSTER LIVER S-9, AROCLOR 1254, Method: STANDARD PLATE); “inactive; negative” (Test System: AMES SALMONELLA TYPHIMURIUM, Strain/Indicator: TA102, Metabolic Activation: NONE, Method: STANDARD PLATE); “inactive; negative” (Test System: AMES SALMONELLA TYPHIMURIUM, Strain/Indicator: TA102, Metabolic Activation: RAT LIVER S-9, AROCLOR 1254, Method: STANDARD PLATE); “inactive; negative” (Test System: AMES SALMONELLA TYPHIMURIUM, Strain/Indicator: TA1535, Metabolic Activation: HAMSTER LIVER S-9, AROCLOR 1254, Method: STANDARD PLATE); “inactive; negative” (Test System: AMES SALMONELLA TYPHIMURIUM, Strain/Indicator: TA1535, Metabolic Activation: NONE, Method: STANDARD PLATE); “inactive; negative” (Test System: AMES SALMONELLA TYPHIMURIUM, Strain/Indicator: TA1535, Metabolic Activation: RAT LIVER S-9, AROCLOR 1254, Method: STANDARD PLATE). Besides, the mutagenic call reads like this: (Test System: AMES SALMONELLA TYPHIMURIUM, Strain/Indicator: TA1537, Metabolic Activation: HAMSTER LIVER S-9, AROCLOR 1254, Method: STANDARD PLATE) “inactive; negative”; (Test System: AMES SALMONELLA TYPHIMURIUM, Strain/Indicator: TA1537, Metabolic Activation: NONE, Method: STANDARD PLATE) “inactive; negative”; (Test System: AMES SALMONELLA TYPHIMURIUM, Strain/Indicator: TA1537, Metabolic Activation: RAT LIVER S-9, AROCLOR 1254, Method: STANDARD PLATE) “inactive; negative”; (Test System: MOUSE LYMPHOMA, Strain/Indicator: L5178Y (TK+/TK-), Metabolic Activation: NONE, Method: SUSPENSION/PLATE) “active; positive. reevaluation of results: positive”; (Test System: MOUSE LYMPHOMA, Strain/Indicator: L5178Y (TK+/TK-), Metabolic Activation: RAT, LIVER, S-9, AROCLOR 1254, Method: SUSPENSION/PLATE) “active; positive. reevaluation of results: equivocal”.

Consider `Cc1cccc(NO)c1`, for which the mutagenic call was “inactive; negative” (Test System: AMES SALMONELLA TYPHIMURIUM, Strain/Indicator: TA98, Metabolic Activation: RAT, LIVER, S-9, AROCLOR 1254, Method: PREINCUBATION) and “active; positive” (Test System: AMES SALMONELLA TYPHIMURIUM, Strain/Indicator: TA100, Metabolic Activation: RAT, LIVER, S-9, PCB, Method: PREINCUBATION).

For the molecule `CC1=C2C(=CC(C)(C)[C@@H]2O)C(=O)[C@](C)(O)C12CC2`, the mutagenic call under setting [1] is “active; positive”.

`O[C@H]1[C@@H]2O[C@@H]2c2c(ccc3cc4ccc5ccccc5c4nc23)[C@@H]1O`: the mutagenic call runs as follows: under setting [1], “active; positive”; under setting [2], “active; positive”; (Test System: CHINESE HAMSTER V-79, Strain/Indicator: V-79/8-AZAGUANINE, Metabolic Activation: NONE, Method: STANDARD PLATE) “active; positive”.

With `CC1=C(O)C(=O)CO1`, the mutagenic call is, setting by setting: under setting [2], “active; positive”; (Test System: AMES SALMONELLA TYPHIMURIUM, Strain/Indicator: TA100, Metabolic Activation: RAT, LIVER, S-9, PHENOBARBITAL AND 5,6-BENZOFLAVONE, Method: PREINCUBATION) “active; positive”.
